Key:
[1] = tested on: blackgrass; assay: Test Example 4: herbicidal effect by soil treatment (Table 19, symbol J); assay type: in vivo, blackgrass (Alopecurus myosuroides); conditions: amount of applied herbicide 320 g/ha
In short: (§1)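 In this soil treatment, the formulated compound reached the seeds only through the soil: seeds were buried about 1.5 cm deep in sterilized diluvial soil, then the diluted emulsion was sprayed over the surface. After three weeks at 25° C. to 30° C. in a greenhouse, effects were graded on criteria from an earlier test.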

[2] = tested on: lambsquarters; assay: Test Example 4: herbicidal effect by soil treatment (Table 19, symbol O); assay type: in vivo, lambsquarters (Chenopodium album); conditions: amount of applied herbicide 320 g/ha
In short: as §1

[3] = tested on: green foxtail; assay: Test Example 4: herbicidal effect by soil treatment (Table 19, symbol G); assay type: in vivo, green foxtail (Setaria viridis); conditions: amount of applied herbicide 320 g/ha
In short: as §1

[4] = tested on: wild oat; assay: Test Example 4: herbicidal effect by soil treatment (Table 19, symbol I); assay type: in vivo, wild oat (Avena fatua); conditions: amount of applied herbicide 320 g/ha
In short: as §1

[5] = tested on: Japanese bulrush; assay: Test Example 1: herbicidal activity, application before weed generation under submerged conditions (Table 16, symbol B); assay type: in vivo, Japanese bulrush (Schoenoplectus juncoides)
In short: (§2)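 Alluvial soil was flooded to 4 cm depth, weed seeds were sown mixed and 2.5-leaf rice seedlings were transplanted. On sowing day, the compound's emulsion, diluted in water to a set dose, was applied to the water surface. Plants grew at 25–30 °C and were scored 0–5 after three weeks.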

[6] = tested on: green foxtail; assay: Test Example 5: herbicidal effect by foliage application, plastic box (Table 20, symbol G); assay type: in vivo, green foxtail (Setaria viridis); conditions: evaluated three weeks after application
In short: (§3)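 Plants were sown into sterilized diluvial soil under about 1.5 cm cover and kept in a greenhouse at 25° C. to 30° C. Fourteen days on, foliage received an even spray of the diluted emulsion. Herbicidal or crop effect was judged three weeks afterwards.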

[7] = tested on: Chinese sprangletop; assay: Test Example 3: herbicidal effect by foliage application, Wagner pot (Table 18, symbol D); assay type: in vivo, chinese sprangletop (Leptochloa chinensis)
In short: (§4)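 Plants were sown in alluvial soil held under 0.1–0.5 cm standing water and grown 14 days in a greenhouse at 25–30 °C. An emulsifiable formulation, water-diluted to the set dose, was then sprayed onto the foliage, and effects were scored three weeks later using previously defined criteria.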

[8] = tested on: redroot pigweed; assay: Test Example 4: herbicidal effect by soil treatment (Table 19, symbol N); assay type: in vivo, redroot pigweed (Amaranthus retroflexus); conditions: amount of applied herbicide 320 g/ha
In short: as §1

[9] = tested on: redroot pigweed; assay: Test Example 5: herbicidal effect by foliage application, plastic box (Table 20, symbol N); assay type: in vivo, redroot pigweed (Amaranthus retroflexus); conditions: evaluated three weeks after application
In short: as §3

[10] = tested on: velvetleaf; assay: Test Example 5: herbicidal effect by foliage application, plastic box (Table 20, symbol M); assay type: in vivo, velvetleaf (Abutilon theophrasti); conditions: evaluated three weeks after application
In short: as §3

[11] = tested on: lambsquarters; assay: Test Example 5: herbicidal effect by foliage application, plastic box (Table 20, symbol O); assay type: in vivo, lambsquarters (Chenopodium album); conditions: evaluated three weeks after application
In short: as §3

[12] = tested on: wild oat; assay: Test Example 5: herbicidal effect by foliage application, plastic box (Table 20, symbol I); assay type: in vivo, wild oat (Avena fatua); conditions: evaluated three weeks after application
In short: as §3

[13] = tested on: chickweed; assay: Test Example 4: herbicidal effect by soil treatment (Table 19, symbol P); assay type: in vivo, common chickweed (Stellaria media); conditions: amount of applied herbicide 320 g/ha
In short: as §1

[14] = tested on: blackgrass; assay: Test Example 5: herbicidal effect by foliage application, plastic box (Table 20, symbol J); assay type: in vivo, blackgrass (Alopecurus myosuroides); conditions: evaluated three weeks after application
In short: as §3

[15] = tested on: false cleavers; assay: Test Example 4: herbicidal effect by soil treatment (Table 19, symbol Q); assay type: in vivo, false cleavers (Galium spurium); conditions: amount of applied herbicide 320 g/ha
In short: as §1

[16] = tested on: late watergrass; assay: Test Example 1: herbicidal activity, application before weed generation under submerged conditions (Table 16, symbol A); assay type: in vivo, late watergrass (Echinochloa oryzicola)
In short: as §2

[17] = tested on: barnyard grass; assay: Test Example 5: herbicidal effect by foliage application, plastic box (Table 20, symbol H); assay type: in vivo, barnyard grass (Echinochloa crus-galli); conditions: evaluated three weeks after application
In short: as §3

[18] = tested on: windgrass; assay: Test Example 4: herbicidal effect by soil treatment (Table 19, symbol L); assay type: in vivo, windgrass (Apera spica-venti); conditions: amount of applied herbicide 320 g/ha
In short: as §1

[19] = tested on: southern crabgrass; assay: Test Example 5: herbicidal effect by foliage application, plastic box (Table 20, symbol F); assay type: in vivo, southern crabgrass (Digitaria ciliaris); conditions: evaluated three weeks after application
In short: as §3

[20] = tested on: barnyard grass; assay: Test Example 4: herbicidal effect by soil treatment (Table 19, symbol H); assay type: in vivo, barnyard grass (Echinochloa crus-galli); conditions: amount of applied herbicide 320 g/ha
In short: as §1

[21] = tested on: Italian ryegrass; assay: Test Example 5: herbicidal effect by foliage application, plastic box (Table 20, symbol K); assay type: in vivo, Italian ryegrass (Lolium multiflorum); conditions: evaluated three weeks after application
In short: as §3

[22] = tested on: barnyard grass; assay: Test Example 3: herbicidal effect by foliage application, Wagner pot (Table 18, symbol H); assay type: in vivo, barnyard grass (Echinochloa crus-galli)
In short: as §4

[23] = tested on: persian speedwell; assay: Test Example 5: herbicidal effect by foliage application, plastic box (Table 20, symbol R); assay type: in vivo, Persian speedwell (Veronica persica); conditions: evaluated three weeks after application
In short: as §3

[24] = tested on: rice flat sedge; assay: Test Example 3: herbicidal effect by foliage application, Wagner pot (Table 18, symbol E); assay type: in vivo, rice flat sedge (Cyperus iria)
In short: as §4

[25] = tested on: oval-leafed pondweed; assay: Test Example 1: herbicidal activity, application before weed generation under submerged conditions (Table 16, symbol C); assay type: in vivo, oval-leafed pondweed (Monochoria vaginalis)
In short: as §2

[26] = tested on: velvetleaf; assay: Test Example 4: herbicidal effect by soil treatment (Table 19, symbol M); assay type: in vivo, velvetleaf (Abutilon theophrasti); conditions: amount of applied herbicide 320 g/ha
In short: as §1

[27] = tested on: Italian ryegrass; assay: Test Example 4: herbicidal effect by soil treatment (Table 19, symbol K); assay type: in vivo, Italian ryegrass (Lolium multiflorum); conditions: amount of applied herbicide 320 g/ha
In short: as §1

[28] = tested on: windgrass; assay: Test Example 5: herbicidal effect by foliage application, plastic box (Table 20, symbol L); assay type: in vivo, windgrass (Apera spica-venti); conditions: evaluated three weeks after application
In short: as §3

[29] = tested on: chickweed; assay: Test Example 5: herbicidal effect by foliage application, plastic box (Table 20, symbol P); assay type: in vivo, common chickweed (Stellaria media); conditions: evaluated three weeks after application
In short: as §3

[30] = tested on: southern crabgrass; assay: Test Example 4: herbicidal effect by soil treatment (Table 19, symbol F); assay type: in vivo, southern crabgrass (Digitaria ciliaris); conditions: amount of applied herbicide 320 g/ha
In short: as §1

[31] = foliage application, AAH 320 g/ha
[32] = amount of applied herbicide 320 g/ha
[33] = amount of applied herbicide 320 g/ha, foliage application after 14-day growth

Cc1nn(C)c(=O)c(-c2c(-c3ccc(CSCC(F)F)cc3)sc3ccc(F)cc23)c1O [2-330]
herbicidal effect on J: blackgrass [1]: 0 (Herbicidal rate of 5% or less (almost no effect))
herbicidal effect on O: lambsquarters [2]: 3 (Herbicidal rate of 40% or more and less than 70%)
herbicidal effect on G: green foxtail [3]: 1 (Herbicidal rate of 5% or more and less than 20%)
herbicidal effect on I: wild oat [4]: 0 (Herbicidal rate of 5% or less (almost no effect))
Herbicidal effect on B: Japanese bulrush (grade 0-5) ([5]; 320 g/ha applied herbicide): 0 (Herbicidal rate of 5% or less (almost no effect))
G: green foxtail, herbicidal effect (criteria 0-5) [6, 31]: 5 (Herbicidal rate of 90% or more (almost completely withered))
herbicidal effect on D: Chinese sprangletop [7, 32]: 2 (Herbicidal rate of 20% or more and less than 40%)
herbicidal effect on N: redroot pigweed [8]: 4 (Herbicidal rate of 70% or more and less than 90%)
N: redroot pigweed, herbicidal effect (criteria 0-5) [9, 31]: 5 (Herbicidal rate of 90% or more (almost completely withered))
M: velvetleaf, herbicidal effect (criteria 0-5) [10, 31]: 5 (Herbicidal rate of 90% or more (almost completely withered))
O: lambsquarters, herbicidal effect (criteria 0-5) [11, 31]: 5 (Herbicidal rate of 90% or more (almost completely withered))
I: wild oat, herbicidal effect (criteria 0-5) [12, 31]: 4 (Herbicidal rate of 70% or more and less than 90%)
herbicidal effect on P: chickweed [13]: 0 (Herbicidal rate of 5% or less (almost no effect))
J: blackgrass, herbicidal effect (criteria 0-5) [14, 31]: 4 (Herbicidal rate of 70% or more and less than 90%)
herbicidal effect on Q: false cleavers [15]: 0 (Herbicidal rate of 5% or less (almost no effect))
Herbicidal effect on A: late watergrass (grade 0-5) ([16]; 320 g/ha applied herbicide): 3 (Herbicidal rate of 40% or more and less than 70%)
H: barnyard grass, herbicidal effect (criteria 0-5) [17, 31]: 5 (Herbicidal rate of 90% or more (almost completely withered))
herbicidal effect on L: windgrass [18]: 0 (Herbicidal rate of 5% or less (almost no effect))
F: southern crabgrass, herbicidal effect (criteria 0-5) [19, 31]: 5 (Herbicidal rate of 90% or more (almost completely withered))
herbicidal effect on H: barnyard grass [20]: 2 (Herbicidal rate of 20% or more and less than 40%)
K: Italian ryegrass, herbicidal effect (criteria 0-5) [21, 31]: 5 (Herbicidal rate of 90% or more (almost completely withered))
herbicidal effect on H: barnyard grass [22, 32]: 5 (Herbicidal rate of 90% or more (almost completely withered))
R: persian speedwell, herbicidal effect (criteria 0-5) [23, 31]: 5 (Herbicidal rate of 90% or more (almost completely withered))
herbicidal effect on E: rice flat sedge [24, 32]: 4 (Herbicidal rate of 70% or more and less than 90%)
Herbicidal effect on C: oval-leafed pondweed (grade 0-5) ([25]; 320 g/ha applied herbicide): 0 (Herbicidal rate of 5% or less (almost no effect))
herbicidal effect on M: velvetleaf [26]: 1 (Herbicidal rate of 5% or more and less than 20%)
herbicidal effect on K: Italian ryegrass [27]: 4 (Herbicidal rate of 70% or more and less than 90%)
L: windgrass, herbicidal effect (criteria 0-5) [28, 31]: 5 (Herbicidal rate of 90% or more (almost completely withered))
P: chickweed, herbicidal effect (criteria 0-5) [29, 31]: 5 (Herbicidal rate of 90% or more (almost completely withered))
herbicidal effect on F: southern crabgrass [30]: 3 (Herbicidal rate of 40% or more and less than 70%)

Cc1nn(C)c(=O)c(-c2c(-c3ccc(C(F)(F)F)cc3)sc3c(C)cccc23)c1O [4-126]
Herbicidal effect by soil treatment, J: blackgrass [1]: 0 (Herbicidal rate of 5% or less (almost no effect))
Herbicidal effect by soil treatment, O: lambsquarters [2]: 3 (Herbicidal rate of 40% or more and less than 70%)
Herbicidal effect by soil treatment, G: green foxtail [3]: 0 (Herbicidal rate of 5% or less (almost no effect))
Herbicidal effect by soil treatment, I: wild oat [4]: 0 (Herbicidal rate of 5% or less (almost no effect))
Herbicidal effect, B: Japanese bulrush [5, 32]: 0 (Herbicidal rate of 5% or less (almost no effect))
Herbicidal effect by foliage application, G: green foxtail [6, 33]: 0 (Herbicidal rate of 5% or less (almost no effect))
herbicidal effect on Chinese sprangletop (D) ([7]; 320 g/ha): 0 (Herbicidal rate of 5% or less (almost no effect))
Herbicidal effect by soil treatment, N: redroot pigweed [8]: 5 (Herbicidal rate of 90% or more (almost completely withered))
Herbicidal effect by foliage application, N: redroot pigweed [9, 33]: 5 (Herbicidal rate of 90% or more (almost completely withered))
Herbicidal effect by foliage application, M: velvetleaf [10, 33]: 5 (Herbicidal rate of 90% or more (almost completely withered))
Herbicidal effect by foliage application, O: lambsquarters [11, 33]: 3 (Herbicidal rate of 40% or more and less than 70%)
Herbicidal effect by foliage application, I: wild oat [12, 33]: 0 (Herbicidal rate of 5% or less (almost no effect))
Herbicidal effect by soil treatment, P: chickweed [13]: 4 (Herbicidal rate of 70% or more and less than 90%)
Herbicidal effect by foliage application, J: blackgrass [14, 33]: 3 (Herbicidal rate of 40% or more and less than 70%)
Herbicidal effect by soil treatment, Q: false cleavers [15]: 0 (Herbicidal rate of 5% or less (almost no effect))
Herbicidal effect, A: late watergrass [16, 32]: 3 (Herbicidal rate of 40% or more and less than 70%)
Herbicidal effect by foliage application, H: barnyard grass [17, 33]: 0 (Herbicidal rate of 5% or less (almost no effect))
Herbicidal effect by soil treatment, L: windgrass [18]: 0 (Herbicidal rate of 5% or less (almost no effect))
Herbicidal effect by foliage application, F: southern crabgrass [19, 33]: 0 (Herbicidal rate of 5% or less (almost no effect))
Herbicidal effect by soil treatment, H: barnyard grass [20]: 0 (Herbicidal rate of 5% or less (almost no effect))
Herbicidal effect by foliage application, K: Italian ryegrass [21, 33]: 4 (Herbicidal rate of 70% or more and less than 90%)
herbicidal effect on barnyard grass (H) ([22]; 320 g/ha): 3 (Herbicidal rate of 40% or more and less than 70%)
Herbicidal effect by foliage application, R: persian speedwell [23, 33]: 5 (Herbicidal rate of 90% or more (almost completely withered))
herbicidal effect on rice flat sedge (E) ([24]; 320 g/ha): 3 (Herbicidal rate of 40% or more and less than 70%)
Herbicidal effect, C: oval-leafed pondweed [25, 32]: 0 (Herbicidal rate of 5% or less (almost no effect))
Herbicidal effect by soil treatment, M: velvetleaf [26]: 0 (Herbicidal rate of 5% or less (almost no effect))
Herbicidal effect by soil treatment, K: Italian ryegrass [27]: 1 (Herbicidal rate of 5% or more and less than 20%)
Herbicidal effect by foliage application, L: windgrass [28, 33]: 0 (Herbicidal rate of 5% or less (almost no effect))
Herbicidal effect by foliage application, P: chickweed [29, 33]: 5 (Herbicidal rate of 90% or more (almost completely withered))
Herbicidal effect by soil treatment, F: southern crabgrass [30]: 0 (Herbicidal rate of 5% or less (almost no effect))

Reference: patent US20230085307A1, “PYRIDAZINONE COMPOUND AND HERBICIDE” (NISSAN CHEMICAL CORPORATION, priority 2019, published 2023)
